Results taken from US9511107B2, “Phenolic compositions derived from apple skin and uses thereof” (priority 2010, dated 2016).

Tests used:
primary cortical neurons = assay: LDH release of primary cortical neurons subjected to oxygen glucose deprivation (OGD); format: cell-based, mouse; conditions: comparison with F4; concentration not given
Method: Lactate dehydrogenase is a stable cytosolic enzyme that is released by necrotic cells upon membrane damage. The membrane integrity of cortical neurons was assayed by measuring the release of lactate dehydrogenase (LDH) using the Cytotoxicity Detection Kit^PLUS (Roche Applied Science). This assay kit detects LDH released into culture supernates by a coupled enzymatic reaction. Positive (100% LDH release) and negative (spontaneous LDH release) controls were prepared in triplicate according to the manufacturer's instructions. Primary cortical neuron cultures were prepared from cerebral cortices of embryonic day 16 CD1 mouse embryos. Cortical neuron cultures were exposed to vehicle (0.1% dimethyl sulfoxide (DMSO)) or F4 at concentrations of 1, 0.1 or 0.01 μg/mL in serum-free conditions for a period of 12 h before they were subjected to oxygen glucose deprivation (OGD). The neurons were exposed to vehicle or F4 at concentrations of 1, 0.1 or 0.01 μg/mL phenolics throughout the 12 h period of OGD. Following, cell culture supernates were collected for determination of released LDH. Absorbance was measured at 490 nm with a reference wavelength of 620 nm. Percentage of total LDH release was calculated by following the instructions provided by the manufacturer. Background was subtracted and LDH release in each sample was expressed as a percentage of the positive control.

[1] = humans, 1 g per day for 1 month; cited from earlier work

| SMILES | reduction of death of primary cortical neurons subjected to OGD (F4 components and metabolites, FIG. 7) (primary cortical neurons) | safety [1] |
| --- | --- | --- |
| COc1cc(-c2oc3cc(O)cc(O)c3c(=O)c2O[C@@H]2O[C@H](C(=O)O)[C@@H](O)[C@H](O)[C@H]2O)ccc1O [IR3GlcA] | no significant reduction |  |
| O=c1c(O[C@@H]2O[C@H](CO)[C@@H](O)[C@H](O)[C@H]2O)c(-c2ccc(O)c(O)c2)oc2cc(O)cc(O)c12 [Fraction Q3G, quercetin 3-O-glucoside] | no significant reduction |  |
| O=c1c(O)c(-c2ccc(O)c(O)c2)oc2cc(O)cc(O)c12 [Q, Quercetin] | no significant reduction | safe |
